For 43 compounds, melting point and IC50 results are on record in patent US20050154230A1, “Urea derivatives” (Bayer HealthCare AG, priority 2001, published 2005).

By melting point is commonly meant the temperature of the solid-liquid transition.

Each structure is given as a SMILES string. A value given as a limit tells only on which side of the number the result lay.

Test system in one data set: not given
Test: not given
Details: not given
In the case of `O=C(Nc1ccc(Br)c(C(F)(F)F)c1)Nc1ccccc1CCO` [Example 185], the melting point was 161 to 164 °C.
On to `N#Cc1ccc(NC(=O)Nc2ccccc2CCO)cc1C(F)(F)F` [Example 186], for which the melting point was 171 °C.
`O=C(Nc1ccc([N+](=O)[O-])c(C(F)(F)F)c1)Nc1ccccc1CCO` [Example 187] displayed a melting point of 149 to 150 °C.
`COc1cc(NC(=O)Nc2ccccc2CCO)cc(C(F)(F)F)c1` [Example 188] gave a melting point of 161 to 162 °C.
On the same count and under the same terms, under `O=C(Nc1cc(C(F)(F)F)ccc1F)Nc1ccccc1CCO` [Example 189] stands 150 to 152 °C.
Consider `O=C(Nc1ccc(F)c(Cl)c1)Nc1ccccc1CCO` [Example 190], for which the melting point fell in the range of 193 to 194 °C.
The same measure, in the same setting: the figure for `N#Cc1ccc(NC(=O)Nc2ccccc2CCO)cc1Cl` [Example 191] is 186 to 187 °C; for `O=C(Nc1ccc(-c2ccc(F)cc2)cc1)Nc1ccccc1CCO` [Example 192] it is 197 °C; for `O=C(Nc1cccc(-c2cccc(Cl)c2)c1)Nc1ccccc1CCO` [Example 195] it is 175 °C.
Still for that read-out and setting: the figure for `O=C(Nc1cccc(-c2ccccc2Cl)c1)Nc1ccccc1CCO` [Example 196] is 153 °C; for `Cc1ccc(C)c(-c2cccc(NC(=O)Nc3ccccc3CCO)c2)c1` [Example 197] it is 167 °C.
`COc1ccc(OC)c(-c2cccc(NC(=O)Nc3ccccc3CCO)c2)c1` [Example 198]: the melting point is 170 °C.
On the same count and under the same terms, under `O=C(Nc1cccc(-c2ccc(F)cc2F)c1)Nc1ccccc1CCO` [Example 199] stands 169 °C.
Regarding `Cc1ccc(-c2cccc(NC(=O)Nc3ccccc3CCO)c2)cc1` [Example 200], the melting point was 178 °C.
In turn, `O=C(Nc1ccc(-c2ccccc2)cc1)Nc1ccccc1CCO` [Example 201] showed a melting point of 194 °C.
For the compound `O=C(Nc1ccc(Cl)c(-c2ccccc2)c1)Nc1ccccc1CCO` [Example 202], the melting point is 185 °C.
Compound `O=C(Nc1cccc(-c2cccs2)c1)Nc1ccccc1CCO` [Example 203] gave a melting point of 195 °C.
In turn, `COc1ccc(-c2cccc(NC(=O)Nc3ccccc3CCO)c2)cc1` [Example 204] displayed a melting point of 166 °C.
Same read-out and setting: under `COc1ccccc1-c1cccc(NC(=O)Nc2ccccc2CCO)c1` [Example 205] stands 130 °C.
As to `CSc1ccc(-c2cccc(NC(=O)Nc3ccccc3CCO)c2)cc1` [Example 206], the melting point was determined as 191 °C.
Still for that read-out and setting: under `O=C(Nc1cccc(-c2ccc(F)c(F)c2)c1)Nc1ccccc1CCO` [Example 207] stands 181 °C; under `O=C(Nc1cccc(-c2cc(F)cc(F)c2)c1)Nc1ccccc1CCO` [Example 208], 169 °C.
Same read-out and setting: the figure for `O=C(Nc1cccc(-c2cc(Cl)ccc2Cl)c1)Nc1ccccc1CCO` [Example 209] is 142 °C; for `O=C(Nc1cccc(-c2ccccc2F)c1)Nc1ccccc1CCO` [Example 210] it is 171 to 172 °C.
In turn, `O=C(Nc1cccc(-c2cccc(F)c2)c1)Nc1ccccc1CCO` [Example 211] returned a melting point of 188 °C.
`O=C(Nc1cccc(-c2cccnc2)c1)Nc1ccccc1CCO` [Example 212] displayed a melting point of 178.9 °C.
Turning to `O=C(Nc1cccc(-c2cc(F)ccc2F)c1)Nc1ccccc1CCO` [Example 213], the melting point was determined as 150 °C.
Turning to `O=C(Nc1cccc(-c2cccc3ccccc23)c1)Nc1ccccc1CCO` [Example 214], the melting point was found to be 113 °C.
For `O=C(Nc1cccc(-c2ccc(F)c(Cl)c2)c1)Nc1ccccc1CCO` [Example 215], the melting point is 176 °C.
Compound `O=C(Nc1cccc(-c2ccc(Cl)c(Cl)c2)c1)Nc1ccccc1CCO` [Example 216] returned a melting point of 180 °C.
With `O=C(Nc1cccc(-c2cc(Cl)cc(Cl)c2)c1)Nc1ccccc1CCO` [Example 217], the melting point is 184 °C.
In the case of `O=C(Nc1ccc(Cl)c(-c2ccc(Cl)cc2)c1)Nc1ccccc1CCO` [Example 218], the melting point was in the range of 170 to 172 °C.
In the case of `COc1ccc(NC(=O)Nc2ccccc2CCO)cc1OC` [Example 219], the melting point lay within 186 to 187 °C.
In turn, `O=C(Nc1ccc2c(c1)OCO2)Nc1ccccc1CCO` [Example 220] gave a melting point of 183 to 184 °C.
On the same count and under the same terms, the figure for `O=C(Nc1ccc2[nH]ncc2c1)Nc1ccccc1CCO` [Example 221] is 234 to 236 °C.
Compound `O=C(Nc1cccc(-c2ccc(C(F)(F)F)cc2)c1)Nc1ccccc1CCO` [Example 222] displayed a melting point of 198 °C.
The same measure, in the same setting: the figure for `O=C(Nc1cccc(-c2ccc(Cl)cc2Cl)c1)Nc1ccccc1CCO` [Example 223] is 166 °C; for `CC(=O)c1ccc(-c2cccc(NC(=O)Nc3ccccc3CCO)c2)cc1` [Example 224] it is 205 °C.
Turning to `CCOC(=O)c1ccc(-c2cccc(NC(=O)Nc3ccccc3CCO)c2)cc1` [Example 225], the melting point is 196 °C.
The same measure, in the same setting: under `CCOC(=O)c1cccc(-c2cccc(NC(=O)Nc3ccccc3CCO)c2)c1` [Example 226] stands 133 °C; under `COc1ccc(Cl)cc1-c1cccc(NC(=O)Nc2ccccc2CCO)c1` [Example 227], 141 to 143 °C.
The compound `COc1ccc(Cl)cc1-c1cccc(NC(=O)Nc2ccccc2CCO)c1` [Example 228] registered a melting point of 126 to 129 °C.
`O=C(Nc1cccc(-c2ccc([N+](=O)[O-])cc2)c1)Nc1ccccc1CCO` [Example 229] came in with a melting point of 197 to 198 °C.

A further data set deals with T1, human VR1 (Homo sapiens, UniProt Q8NER1).
T1 construct: expressed in transfected cells
T1 sequence (Q8NER1 whole entry): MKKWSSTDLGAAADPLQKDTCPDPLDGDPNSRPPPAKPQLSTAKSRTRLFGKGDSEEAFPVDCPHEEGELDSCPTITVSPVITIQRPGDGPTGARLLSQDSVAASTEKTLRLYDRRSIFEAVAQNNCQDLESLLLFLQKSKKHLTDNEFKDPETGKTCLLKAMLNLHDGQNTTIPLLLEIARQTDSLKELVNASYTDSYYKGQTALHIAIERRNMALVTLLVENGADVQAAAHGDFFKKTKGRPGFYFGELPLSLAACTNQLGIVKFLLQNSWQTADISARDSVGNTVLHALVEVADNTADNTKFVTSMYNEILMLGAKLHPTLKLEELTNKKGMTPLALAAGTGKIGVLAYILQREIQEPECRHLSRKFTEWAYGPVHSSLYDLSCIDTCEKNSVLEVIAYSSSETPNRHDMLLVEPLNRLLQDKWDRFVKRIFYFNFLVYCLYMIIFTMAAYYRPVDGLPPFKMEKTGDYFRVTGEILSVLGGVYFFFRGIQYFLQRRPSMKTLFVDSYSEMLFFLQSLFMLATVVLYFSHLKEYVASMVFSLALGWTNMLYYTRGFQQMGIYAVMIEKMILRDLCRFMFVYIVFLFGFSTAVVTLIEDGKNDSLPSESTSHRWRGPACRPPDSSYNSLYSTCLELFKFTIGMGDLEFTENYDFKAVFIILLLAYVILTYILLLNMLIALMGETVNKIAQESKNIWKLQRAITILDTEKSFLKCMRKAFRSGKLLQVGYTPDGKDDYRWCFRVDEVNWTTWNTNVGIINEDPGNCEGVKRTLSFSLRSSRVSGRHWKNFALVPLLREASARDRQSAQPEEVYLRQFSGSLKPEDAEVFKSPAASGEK
As to the kind of experiment: Capsaicin-induced Ca2+ influx in the human VR1-transfected CHO cell line (Assay 1). The data set is classed as cell-based.
Details: not given
A digest of the protocol:
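CHO cells expressing human VR1 with an aequorin reporter were treated with compound or vehicle for 20 min at 25° C. Capsaicin-induced Ca^2+ influx was then measured on an FDSS-3000. Integral R was calculated and compared with controls.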
Regarding `N#Cc1ccc(NC(=O)Nc2ccccc2CCO)cc1C(F)(F)F` [Example 186], the IC50 is less than 100 nM.

The data set is the same for the next values; noted with them: human VR1-CHOluc9aeq cells, 10 nM capsaicin; compound purity about 40 to 90%; read-out: hVR1 class.
Regarding `O=C(Nc1ccc(Br)c(C(F)(F)F)c1)Nc1ccccc1CCO` [Example 185], the IC50 is less than 100 nM.
Consider `O=C(Nc1ccc([N+](=O)[O-])c(C(F)(F)F)c1)Nc1ccccc1CCO` [Example 187], for which the IC50 lay in the range of 100 to 500 nM.
As to `COc1cc(NC(=O)Nc2ccccc2CCO)cc(C(F)(F)F)c1` [Example 188], the IC50 is less than 100 nM.
Still for that read-out and setting: under `O=C(Nc1cc(C(F)(F)F)ccc1F)Nc1ccccc1CCO` [Example 189] stands 500 to 1000 nM.
The same measure, in the same setting: under `O=C(Nc1ccc(F)c(Cl)c1)Nc1ccccc1CCO` [Example 190] stands 100 to 500 nM; under `N#Cc1ccc(NC(=O)Nc2ccccc2CCO)cc1Cl` [Example 191], 100 to 500 nM.
On the same count and under the same terms, under `O=C(Nc1ccc(-c2ccc(F)cc2)cc1)Nc1ccccc1CCO` [Example 192] stands 100 to 500 nM; under `O=C(Nc1cccc(-c2cccc(Cl)c2)c1)Nc1ccccc1CCO` [Example 195], less than 100 nM; under `O=C(Nc1cccc(-c2ccccc2Cl)c1)Nc1ccccc1CCO` [Example 196], less than 100 nM.
Consider `Cc1ccc(C)c(-c2cccc(NC(=O)Nc3ccccc3CCO)c2)c1` [Example 197], for which the IC50 is less than 100 nM.
With `COc1ccc(OC)c(-c2cccc(NC(=O)Nc3ccccc3CCO)c2)c1` [Example 198], the IC50 lay within 100 to 500 nM.
Still for that read-out and setting: under `O=C(Nc1cccc(-c2ccc(F)cc2F)c1)Nc1ccccc1CCO` [Example 199] stands less than 100 nM; under `Cc1ccc(-c2cccc(NC(=O)Nc3ccccc3CCO)c2)cc1` [Example 200], less than 100 nM; under `O=C(Nc1ccc(-c2ccccc2)cc1)Nc1ccccc1CCO` [Example 201], 100 to 500 nM.
`O=C(Nc1ccc(Cl)c(-c2ccccc2)c1)Nc1ccccc1CCO` [Example 202]: the IC50 was 100 to 500 nM.
Consider `O=C(Nc1cccc(-c2cccs2)c1)Nc1ccccc1CCO` [Example 203], for which the IC50 was less than 100 nM.
Take `COc1ccc(-c2cccc(NC(=O)Nc3ccccc3CCO)c2)cc1` [Example 204]: the IC50 was less than 100 nM.
For `COc1ccccc1-c1cccc(NC(=O)Nc2ccccc2CCO)c1` [Example 205], the IC50 is 100 to 500 nM.
For `CSc1ccc(-c2cccc(NC(=O)Nc3ccccc3CCO)c2)cc1` [Example 206], the IC50 is less than 100 nM.
On to `O=C(Nc1cccc(-c2ccc(F)c(F)c2)c1)Nc1ccccc1CCO` [Example 207], for which the IC50 is less than 100 nM.
Take `O=C(Nc1cccc(-c2cc(F)cc(F)c2)c1)Nc1ccccc1CCO` [Example 208]: the IC50 was less than 100 nM.
Take `O=C(Nc1cccc(-c2cc(Cl)ccc2Cl)c1)Nc1ccccc1CCO` [Example 209]: the IC50 was less than 100 nM.
As to `O=C(Nc1cccc(-c2ccccc2F)c1)Nc1ccccc1CCO` [Example 210], the IC50 was less than 100 nM.
Still for that read-out and setting: the figure for `O=C(Nc1cccc(-c2cccc(F)c2)c1)Nc1ccccc1CCO` [Example 211] is less than 100 nM; for `O=C(Nc1cccc(-c2cccnc2)c1)Nc1ccccc1CCO` [Example 212] it is 500 to 1000 nM.
As for `O=C(Nc1cccc(-c2cc(F)ccc2F)c1)Nc1ccccc1CCO` [Example 213], the IC50 was less than 100 nM.
`O=C(Nc1cccc(-c2cccc3ccccc23)c1)Nc1ccccc1CCO` [Example 214]: the IC50 is less than 100 nM.
The same measure, in the same setting: the figure for `O=C(Nc1cccc(-c2ccc(F)c(Cl)c2)c1)Nc1ccccc1CCO` [Example 215] is less than 100 nM; for `O=C(Nc1cccc(-c2ccc(Cl)c(Cl)c2)c1)Nc1ccccc1CCO` [Example 216] it is less than 100 nM.
`O=C(Nc1cccc(-c2cc(Cl)cc(Cl)c2)c1)Nc1ccccc1CCO` [Example 217]: the IC50 is less than 100 nM.
The same measure, in the same setting: under `O=C(Nc1ccc(Cl)c(-c2ccc(Cl)cc2)c1)Nc1ccccc1CCO` [Example 218] stands less than 100 nM; under `COc1ccc(NC(=O)Nc2ccccc2CCO)cc1OC` [Example 219], 500 to 1000 nM; under `O=C(Nc1ccc2c(c1)OCO2)Nc1ccccc1CCO` [Example 220], 500 to 1000 nM.
Same read-out and setting: the figure for `O=C(Nc1ccc2[nH]ncc2c1)Nc1ccccc1CCO` [Example 221] is 500 to 1000 nM; for `O=C(Nc1cccc(-c2ccc(C(F)(F)F)cc2)c1)Nc1ccccc1CCO` [Example 222] it is less than 100 nM; for `O=C(Nc1cccc(-c2ccc(Cl)cc2Cl)c1)Nc1ccccc1CCO` [Example 223] it is less than 100 nM.
Regarding `CC(=O)c1ccc(-c2cccc(NC(=O)Nc3ccccc3CCO)c2)cc1` [Example 224], the IC50 is less than 100 nM.
Still for that read-out and setting: the figure for `CCOC(=O)c1ccc(-c2cccc(NC(=O)Nc3ccccc3CCO)c2)cc1` [Example 225] is less than 100 nM; for `CCOC(=O)c1cccc(-c2cccc(NC(=O)Nc3ccccc3CCO)c2)c1` [Example 226] it is less than 100 nM.
As for `COc1ccc(Cl)cc1-c1cccc(NC(=O)Nc2ccccc2CCO)c1` [Example 227], the IC50 was less than 100 nM.
Consider `COc1ccc(Cl)cc1-c1cccc(NC(=O)Nc2ccccc2CCO)c1` [Example 228], for which the IC50 is less than 100 nM.
In the case of `O=C(Nc1cccc(-c2ccc([N+](=O)[O-])cc2)c1)Nc1ccccc1CCO` [Example 229], the IC50 is less than 100 nM.
